Source: patent US6472348B1, “Pyridone derivatives and herbicides” (Kumiai Chemical Industry Co., Ltd., priority 1996, dated 2002)

Columns and labels:
Format in all cases: in vivo
barnyardgrass (Ec) [1] = assay: Test Example 1: herbicidal effects by paddy field soil treatment; conditions: 100 g of the active ingredient per 10 ares, 21st day after the application, index 0-5 of Table 47;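 also: grade of growth control; 5 = at least 90%; 4 = 70 to 90%; 3 = 50 to 70%; 2 = 30 to 50%; 1 = 10 to 30%; 0 = under 10%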
Outline: (§1)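 Greenhouse pot test in flooded paddy soil, dosed at 100 g a.i. per 10 ares; effect scored on day 21.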

bulrush (Sc) = assay: as above; conditions: 100 g of the active ingredient per 10 ares, 21st day after the application, index 0-5 of Table 47;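 also: grade of growth control; 5 = at least 90%; 4 = 70 to 90%; 3 = 50 to 70%; 2 = 30 to 50%; 1 = 10 to 30%; 0 = under 10%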
Outline: as §1

monochoria (Mo) = assay: as above; conditions: 100 g of the active ingredient per 10 ares, 21st day after the application, index 0-5 of Table 47;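 also: grade of growth control; 5 = at least 90%; 4 = 70 to 90%; 3 = 50 to 70%; 2 = 30 to 50%; 1 = 10 to 30%; 0 = under 10%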
Outline: as §1

Digitaria ciliaris (Di) = assay: Test Example 2: herbicidal effects by upland field soil treatment; conditions: 100 g of the active ingredient per 10 ares;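 also: grade of growth control; 5 = at least 90%; 4 = 70 to 90%; 3 = 50 to 70%; 2 = 30 to 50%; 1 = 10 to 30%; 0 = under 10%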
Source text: (§2) (Test on Herbicidal Effects by Upland Field Soil Treatment)

barnyardgrass (Ec) [2] = assay: as above; conditions: 100 g of the active ingredient per 10 ares
Source text: as §2

[3] = tested on: common lambsquarters (Ch); assay: as above; conditions: 100 g of the active ingredient per 10 ares
Source text: as §2

pale smartweed (Po) [4] = assay: as above; conditions: 100 g of the active ingredient per 10 ares
Source text: as §2

rice flatsedge (Ci) [5] = assay: as above; conditions: 100 g of the active ingredient per 10 ares
Source text: as §2

slender amaranth (Am) [6] = assay: as above; conditions: 100 g of the active ingredient per 10 ares
Source text: as §2

Diaitaria ciliaris (Di) = assay: Test Example 3: herbicidal effects by upland field foliage treatment; parameters: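 grade of growth control; 5 = at least 90%; 4 = 70 to 90%; 3 = 50 to 70%; 2 = 30 to 50%; 1 = 10 to 30%; 0 = under 10%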
Outline: (§3)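 Scoring used a standard effect scale on the 14th day post-treatment, with plants held in a greenhouse throughout. Foliar application was made to weeds raised from seed in sand-filled pots for 2 weeks.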

barnyardgrass (Ec) [7] = assay: as above; parameters: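 grade of growth control; 5 = at least 90%; 4 = 70 to 90%; 3 = 50 to 70%; 2 = 30 to 50%; 1 = 10 to 30%; 0 = under 10%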
Outline: as §3

[8] = tested on: common lambsquarters (Ch); assay: as above; parameters: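 grade of growth control; 5 = at least 90%; 4 = 70 to 90%; 3 = 50 to 70%; 2 = 30 to 50%; 1 = 10 to 30%; 0 = under 10%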
Outline: as §3

pale smartweed (Po) [9] = assay: as above; parameters: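 grade of growth control; 5 = at least 90%; 4 = 70 to 90%; 3 = 50 to 70%; 2 = 30 to 50%; 1 = 10 to 30%; 0 = under 10%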
Outline: as §3

rice flatsedge (Ci) [10] = assay: as above; parameters: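 grade of growth control; 5 = at least 90%; 4 = 70 to 90%; 3 = 50 to 70%; 2 = 30 to 50%; 1 = 10 to 30%; 0 = under 10%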
Outline: as §3

slender amaranth (Am) [11] = assay: as above; parameters: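 grade of growth control; 5 = at least 90%; 4 = 70 to 90%; 3 = 50 to 70%; 2 = 30 to 50%; 1 = 10 to 30%; 0 = under 10%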
Outline: as §3

[12] = 21st day after the application, index 0-5 of Table 47
[13] = 100 g of the active ingredient per 10 ares, evaluated on the 14th day after treatment
[14] = evaluated on the 21st day after application
[15] = 100 g active ingredient per 10 ares, evaluated 14th day after treatment

Compound	Herbicidal effects Ec (barnyardgrass (Ec) [1])	Herbicidal effects Sc (bulrush (Sc))	Herbicidal effects Mo (monochoria (Mo))	Herbicidal effects Di (Digitaria ciliaris (Di); [12])	Herbicidal effects Ec (barnyardgrass (Ec) [2]; [12])	Herbicidal effects Ch [3, 12]	Herbicidal effects Po (pale smartweed (Po) [4]; [12])	Herbicidal effects Ci (rice flatsedge (Ci) [5]; [12])	Herbicidal effects Am (slender amaranth (Am) [6]; [12])	Herbicidal effects Di (Diaitaria ciliaris (Di); [13])	Herbicidal effects Ec (barnyardgrass (Ec) [7]; [13])	Herbicidal effects Ch [8, 13]	Herbicidal effects Po (pale smartweed (Po) [9]; [13])	Herbicidal effects Ci (rice flatsedge (Ci) [10]; [13])	Herbicidal effects Am (slender amaranth (Am) [11]; [13])	Herbicidal effects Di (Digitaria ciliaris (Di); [14])	Herbicidal effects Ec (barnyardgrass (Ec) [2]; [14])	Herbicidal effects Ch [3, 14]	Herbicidal effects Po (pale smartweed (Po) [4]; [14])	Herbicidal effects Ci (rice flatsedge (Ci) [5]; [14])	further results
CC(Oc1cc(-c2ccc(C(F)(F)F)n(C)c2=O)c(F)cc1Cl)C1CC1 (stereo not drawn) [1-161]	5	5	5	5	5	5	5	5	5	5	5	5	5	5	5	–	–	–	–	–	–
CCOCCOc1cc(-c2ccc(C(F)(F)F)n(C)c2=O)c(F)cc1Cl [1-163]	5	5	5	5	5	5	5	5	5	5	5	5	5	5	5	–	–	–	–	–	–
Cn1c(C(F)(F)F)ccc(-c2cc(C=NO)c(Cl)cc2F)c1=O [1-164]	5	5	5	5	5	5	5	5	5	5	5	5	5	5	5	–	–	–	–	–	–
Cn1c(C(F)(F)F)ccc(-c2cc(SC3CCCO3)c(Cl)cc2F)c1=O (stereo not drawn) [1-165]	5	5	5	5	5	5	5	5	5	5	5	5	5	5	5	–	–	–	–	–	–
CCCCOc1cc(-c2ccc(C(F)(F)F)n(C)c2=O)c(F)cc1Cl [1-166]	5	5	5	5	5	5	5	5	5	5	4	5	5	5	5	–	–	–	–	–	–
CC(C)COc1cc(-c2ccc(C(F)(F)F)n(C)c2=O)c(F)cc1Cl [1-168]	5	5	5	5	5	5	5	5	5	5	5	5	5	5	5	–	–	–	–	–	–
CC(C)OCCOc1cc(-c2ccc(C(F)(F)F)n(C)c2=O)c(F)cc1Cl [1-169]	5	5	5	–	–	–	–	–	–	5	5	5	5	5	5	5	5	5	5	5	Herbicidal effects Am (slender amaranth (Am) [6]; [14]): 5
CC(C)=CCOc1cc(-c2ccc(C(F)(F)F)n(C)c2=O)c(F)cc1Cl [1-174]	5	5	5	–	–	–	–	–	–	5	5	5	5	5	5	5	5	5	5	5	Herbicidal effects Am (slender amaranth (Am) [6]; [14]): 5
CC#CCOc1cc(-c2ccc(C(F)(F)F)n(C)c2=O)c(F)cc1Cl [1-175]	5	5	5	–	–	–	–	–	–	5	5	5	5	5	5	5	5	5	5	5	Herbicidal effects Am (slender amaranth (Am) [6]; [14]): 5
C=CCOc1cc(Cl)cc(F)c1-c1ccc(C(F)(F)F)n(C)c1=O [1′-3]	5	4	5	–	–	–	–	–	–	–	–	–	–	–	–	5	5	5	5	5	Herbicidal effects Am (slender amaranth (Am) [6]; [14]): 5; Herbicidal effects Di (Diaitaria ciliaris (Di); [15]): 5; Herbicidal effects Ec (barnyardgrass (Ec) [7]; [15]): 5; Herbicidal effects Ch [8, 15]: 5; Herbicidal effects Po (pale smartweed (Po) [9]; [15]): 5; Herbicidal effects Ci (rice flatsedge (Ci) [10]; [15]): 5; Herbicidal effects Am (slender amaranth (Am) [11]; [15]): 5
